From US20100267561A1, “HERBICIDAL PYRIDAZINONE DERIVATIVES” (priority 2007, published 2010)
Like-named read-outs stand apart in the source and are kept apart here.

System: pigweed (Amaranthus retroflexus)
Assay: Test A pre-/postemergence plant response
Type: in vivo
Conditions: for pest or weed control at 31 g/ha / pest or weed control at 125 g/ha / pest or weed control at 500 g/ha: Amaranthus retroflexus, 240 h, read-out: Plant response rating, Pigweed
Outline: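 Ratings are visual, 0–100, where 100 means complete control and 0 no effect, taken roughly 10 days after treatment by comparison with untreated controls. Formulation: non-phytotoxic solvent mixture with surfactant.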

[1] = Postemergence, 31 g ai/ha, 0 to 100 scale, 0 no effect, 100 complete control
[2] = Postemergence, 125 g ai/ha, 0 to 100 scale, 0 no effect, 100 complete control
[3] = Preemergence, 31 g ai/ha, 0 to 100 scale, 0 is no effect, 100 is complete control
[4] = Preemergence, 125 g ai/ha, 0 to 100 scale (0 no effect, 100 complete control)
[5] = post-emergence, Postemergence, 31 g ai/ha, 0 to 100 scale (0 no effect, 100 complete control)
[6] = post-emergence, Postemergence, 125 g ai/ha, 0 to 100 scale, 0 no effect, 100 complete control
[7] = pre-emergence, Preemergence, 31 g ai/ha, 0 to 100 scale, 0 is no effect, 100 is complete control
[8] = pre-emergence, Preemergence, 125 g ai/ha, 0 to 100 scale (0 no effect, 100 complete control)
[9] = Postemergence, 500 g ai/ha, 0 to 100 scale, 0 no effect, 100 complete control
[10] = Preemergence, 500 g ai/ha, 0 to 100 scale (0 no effect, 100 complete control)

| Molecule | Plant response rating, Pigweed [1] | Plant response rating, Pigweed [2] | Plant response rating, Pigweed [3] | Plant response rating, Pigweed [4] | other results |
| --- | --- | --- | --- | --- | --- |
| Cc1nn(C)c(=O)c(-n2nc(-c3ccc(Cl)cc3)cc2Cl)c1O [Compound 59] | 0 | 0 | 0 | 0 |  |
| Cc1nn(C)c(=O)c(-c2nc(-c3ccc(Cl)cc3)sc2C)c1O [Compound 79, 4-[2-(4-chlorophenyl)-5-methyl-4-thiazolyl]-5-hydroxy-2,6-dimethyl-3(2H)-pyridazinone] |  |  |  |  | pest or weed control at 31 g/ha [5]: 0%; pest or weed control at 125 g/ha [6]: 0%; pest or weed control at 31 g/ha [7]: 0%; pest or weed control at 125 g/ha [8]: 0% |
| Cn1ncc(O)c(-c2nn(-c3ccc(C(F)(F)F)cc3)cc2Br)c1=O [Compound 87, 4-[4-bromo-1-[4-(trifluoromethyl)phenyl]-1H-pyrazol-3-yl]-5-hydroxy-2-methyl-3(2H)-pyridazinone] |  |  |  |  | pest or weed control at 31 g/ha [5]: 0%; pest or weed control at 125 g/ha [6]: 0%; pest or weed control at 31 g/ha [7]: 0%; pest or weed control at 125 g/ha [8]: 0% |
| CCc1c(C)c(-c2ccc(Br)cc2)nn1-c1c(O)cnn(C)c1=O [Compound 83] | 0 | 0 | 0 | 30 |  |
| CCc1cc(-c2ccc(Br)cc2)nn1-c1c(O)c(C)nn(C)c1=O [Compound 74] | 0 | 0 | 0 | 0 |  |
| CCCc1cc(-c2ccc(C(F)(F)F)cc2)nn1-c1c(O)cnn(C)c1=O [Compound 72] | 0 | 0 | 0 | 0 |  |
| CCc1cc(-c2ccc(C(F)(F)F)cc2)nn1-c1c(OC(=O)OC(C)C)cnn(C)c1=O [Compound 12] |  | 0 |  | 0 | Plant response rating, Pigweed [9]: 0; Plant response rating, Pigweed [10]: 0 |
| Cc1cc(-c2ccc(Br)cc2)nn1-c1c(OC(=O)C2CC2)cnn(C)c1=O [Compound 5] |  | 0 |  | 0 | Plant response rating, Pigweed [9]: 0; Plant response rating, Pigweed [10]: 0 |
| Cc1cc(-c2ccc(C(F)(F)F)cc2)nn1-c1c(O)c(C(C)C)nn(C)c1=O [Compound 27] |  | 0 |  | 0 | Plant response rating, Pigweed [9]: 0; Plant response rating, Pigweed [10]: 0 |
| Cc1cc(-c2ccc(Cl)cc2)nn1-c1c(OS(=O)(=O)C(C)C)cnn(C)c1=O [Compound 50] | 0 | 0 | 0 | 0 |  |
| CCc1cc(-c2ccc(C(F)(F)F)cc2)nn1-c1c(O)c(OC)nn(C)c1=O [Compound 66] | 0 | 0 | 0 | 0 |  |
| Cn1ncc(O)c(-n2nc(-c3ccc(Cl)cc3)cc2C2CC2)c1=O [Compound 45] | 0 | 0 | 0 | 0 |  |
| Cc1cn(-c2ccc(C(F)(F)F)cc2)nc1-c1c(O)cnn(C)c1=O [Compound 85, 5-hydroxy-2-methyl-4-[4-methyl-1-[4-(trifluoromethyl)phenyl]-1H-pyrazol-3-yl]-3(2H)-pyridazinone] |  |  |  |  | pest or weed control at 31 g/ha [5]: 0%; pest or weed control at 125 g/ha [6]: 0%; pest or weed control at 31 g/ha [7]: 0%; pest or weed control at 125 g/ha [8]: 0% |
| COc1nn(C)c(=O)c(-n2nc(-c3ccc(Br)cc3)cc2C)c1O [Compound 82] | 0 | 0 | 0 | 0 |  |
| CCc1cc(-c2ccc(C(F)(F)F)cc2)nn1-c1c(O)c(C)nn(C)c1=O [Compound 16] |  | 0 |  | 0 | Plant response rating, Pigweed [9]: 0; Plant response rating, Pigweed [10]: 0 |
| 5-[3-(4-chlorophenyl)-5-methyl-1H-pyrazol-1-yl]-1,6-dihydro-1-methyl-6-oxo-4-pyridazinyl-1-methylethyl carbonate [Compound 7] |  | 0 |  | 0 | Plant response rating, Pigweed [9]: 0; Plant response rating, Pigweed [10]: 0 |
| CCc1cc(-c2ccc(Br)cc2)nn1-c1c(O)cnn(CC(F)(F)F)c1=O [Compound 73] | 10 | 10 | 0 | 0 |  |
| CCCc1cc(-c2ccc(Cl)cc2)nn1-c1c(O)cnn(C)c1=O [Compound 76] | 0 | 0 | 0 | 0 |  |
| CCCC(=O)Oc1cnn(C)c(=O)c1-n1nc(-c2ccc(Cl)cc2)cc1C [Compound 56] | 0 | 0 | 0 | 0 |  |
| Cc1cc(-c2ccc(Cl)cc2)nn1-c1c(OC(=O)c2ccccc2Cl)cnn(C)c1=O [Compound 38] | 0 | 0 | 0 | 0 |  |
| Cc1cc(-c2ccc(Br)cc2)nn1-c1c(O)cnn(C2CCCCO2)c1=O (stereo not shown) [Compound 77, 4-[3-(4-bromophenyl)-5-methyl-1H-pyrazol-1-yl]-5-hydroxy-2-(tetrahydro-2H-pyran-2-yl)-3(2H)-pyridazinone] |  |  |  |  | pest or weed control at 125 g/ha [6]: 0%; pest or weed control at 500 g/ha (post-emergence, Postemergence, 500 g ai/ha, 0 to 100 scale, 0 no effect, 100 complete control): 0%; pest or weed control at 125 g/ha [8]: 0%; pest or weed control at 500 g/ha (pre-emergence, Preemergence, 500 g ai/ha, 0 to 100 scale (0 no effect, 100 complete control)): 0% |
| Cc1ccc(-c2ccc(Cl)cc2)cc1-c1c(O)cnn(C)c1=O [Compound 46] | 0 | 0 | 0 | 0 |  |
